According to patent US10086034B2, “Compositions and methods for inducing urinary voiding and defecation” (Dignify Therapeutics, LLC, priority 2013, dated 2018):
“Also recorded” adds a separate entry of the source. Where no end group is shown, it is not given here. [ ]: non-standard residue; d: D form. βAla = NCCC(=O)O

What was measured:
Beagle dogs = assay: Adverse events after a high i.v. dose of NK2R agonist in beagle dogs; format: in vivo; conditions: 150 ug/kg intravenous, stated in Example 10 (present tense methods)
Description: General: Beagle dogs (6-11 kg, purpose-bred and experimentally naïve) are housed at an AAALAC approved facility in cages (1/cage) with access to water and food. A butterfly intravenous catheter is inserted into a vein (e.g. radial or saphenous). All animal activities are performed in compliance with USDA guidelines. Animals are monitored for 5 days prior to dosing to ensure adequate health.
Treatments and Dosing: Animals are administered a dose of an NK2R agonist that produces observed adverse events. […] Adverse events are commonly quantified by measuring the number of events and the duration of each event occurring during “1 minute time bins” after NK2R agonist administration to create a time histogram of events. When voiding has stopped, a NK2R antagonist is administered intravenously. Efficacy of the NK2R antagonist is obtained by measuring the reduction in the number and duration of adverse events.

[1] = system: bladder of anesthetized acutely spinalized female rats; assay: Bladder contractility: isovolumetric bladder pressure recording in anesthetized acutely spinalized rats; format: in vivo, Sprague Dawley rats; conditions: for effect of antagonist pre-administration on DTI-100 induced increase in bladder pressure: antagonist 1 mg/kg, DTI-100 10 μg/kg i.v., paired t-test, N=4; for bladder pressure (peak pressure response): increasing i.v. doses, acutely spinalized anesthetized female rats
Description: (§1) General: In vivo studies were performed in anesthetized, acutely spinalized (T9-10 level) rats (N=37) or spinally intact (N=3) rats. Adult female Sprague Dawley rats (Charles River, N.C.; 250-300 g) were housed at an AAALAC approved facility in cages (3/cage) with free access to water and food in a colony room that was maintained on a 12 hr/12 hr light/dark cycle 1-2 weeks before the experiment. Rats were anesthetized with urethane (1.2-1.4 g/kg subcutaneous injection). Surgical procedures were then performed with the addition of isoflurane anesthesia (0.05-1.5% in O2) as the full anesthetic effect of urethane takes about 1-2 hrs.
A catheter filled with heparinized saline (50 unit/ml) was inserted into the carotid artery and connected to a pressure transducer for measurement of blood pressure and heart rate. A catheter was inserted into the jugular vein for intravenous (i.v.) administration of drugs. In order to transect the spinal cord, the skin and muscle on the dorsal side at the level of the lower thoracic vertebrae were incised, and the spinal cord was carefully exposed by a laminectomy and transected at the T8-T10 spinal level. Gelfoam was placed at the incision site and the muscle and skin overlying the vertebrae were closed with wound clips. The spinal cord was cut at least 60 min before starting the experimental protocol.
Bladder Contractility: For isovolumetric recordings of bladder pressure a saline-filled polyethylene tubing with a flared tip (PE 50®) catheter was inserted into the bladder and secured in place at the dome. This catheter was used to slowly infuse saline (0.2-0.3 ml/min by an infusion pump (PHD2000 infusion, Harvard Apparatus, Holliston, Mass.) to determine the bladder capacity. The bladder capacity was determined as the volume necessary to fill the bladder to the leak point pressure (i.e. volume required to produce voiding). The bladder was then emptied, the external urethra occluded and the bladder filled to 70% capacity. This method produced a stable baseline pressure in which drug induced changes in bladder contractility could be measured. Peak pressure responses, time to peak, and time to return to near baseline values (within 5 mmHg of baseline; i.e. duration of action) after vehicle and drug administration were measured.
Dosing: Responses to saline i.v. were given to ensure stable baseline pressures and lack of response to saline (vehicle control for DTI-100) at the start of each protocol and periodical throughout the experiment. DTI-100 was given in dose range of 0.01-100 μg/kg. The NK1R antagonist, Spantide I (solubilized in saline) and NK2R antagonist GR159897 (solubilized at 50 mM in DMSO and then diluted in saline) were given at a 1 mg/kg dose. Neurokinin A (NKA) and (betaAla8)NKA(4-10) were given at doses 1-100 μg/kg. Additional routes of drug administration explored included, intramuscular, subcutaneous, and sublingual. [Lys5,MeLeu9,Nle10]-NKA(4-10) (SEQ ID NO: 1) or “DTI-100”, Spantide I, GR159897, Neurokinin A, and (BetaAla8)NKA(4-10) were obtained from TOCRIS R&D SYSTEMS, Inc. (Minneapolis, Minn.).
Data analysis: Data were examined qualitatively and quantitatively. The mean, standard deviation and standard error of the mean were calculated using MICROSOFT EXCEL. One way ANOVA tests were performed with PRISM 5 for WINDOWS (Graphpad Software, Inc., La Jolla, Calif.) and unpaired and paired t-tests were performed in EXCEL. P<0.05 was considered as statistically significant.

[2] = system: colorectum of anesthetized acutely spinalized female rats; assay: Colorectal contractility: balloon catheter colorectal pressure in anesthetized rats; format: in vivo, Sprague Dawley rats; conditions: antagonist 1 mg/kg i.v.; DTI-100 10 μg/kg given 5 min later
Description: as §1, with “hrs. […]” for “hrs.”
Colorectal Contractility: Colorectal pressures were measured via a latex balloon catheter (length 3-5 cm) inserted (˜4 cm) into the distal rectal/colon region. […] This allowed drug induced changes in colorectal pressure to be monitored. Parameters measured include peak colorectal pressure response, duration of time above baseline activity (in the 1st 5 min after drug administration), area under the curve (measured during the 1st 5 min after drug administration) and the number of contractile events after vehicle and drug administration. […]
Data analysis: Data were examined qualitatively and quantitatively. The mean, standard deviation and standard error of the mean were calculated using MICROSOFT EXCEL. […]

Row | Molecule | effect of antagonist pre-administration on DTI-100 induced increase in bladder pressure [1] | effect of antagonist pre-administration on DTI-100 induced increase in colorectal activity [2] | bladder pressure (peak pressure response) [1] | further results
1 | CCCC[C@H](NC(=O)[C@H](CC(C)C)N(C)C(=O)CNC(=O)[C@@H](NC(=O)[C@H](Cc1ccccc1)NC(=O)[C@H](CCCCN)NC(=O)[C@@H](N)CC(=O)O)C(C)C)C(N)=O [DTI-100, [Lys5,MeLeu9,Nle10]-NKA(4-10)] |  |  |  | duration of adverse events (Beagle dogs): approximately 15 minutes; adverse events observed (Beagle dogs; within minutes after voiding and defecation): retching, emesis, panting, and vocalization
2 | COC1(C[S@@+]([O-])c2ccccc2)CCN(CCc2c[nH]c3ccc(F)cc23)CC1 [GR159897] | significantly blocked the bladder pressure increase to DTI-100 | significantly blocked the bladder pressure increase produced by DTI-100 |  | 
3 | Asp-Ser-Phe-Val-β-Ala-Leu-Met-NH2 (DSFV[βAla]LM-NH2) [(betaAla8)NKA(4-10), peptide agonist for NK2R] |  |  | produce increases in bladder pressure | 
4 | His-Lys-Thr-Asp-Ser-Phe-Val-Gly-Leu-Met-NH2 (HKTDSFVGLM-NH2) [NKA, neuropeptide neurokininA, peptide agonist for NK2R] |  |  | produce increases in bladder pressure | time to peak bladder pressure response ([1]; i.v., all doses studied): ≤ 60 s; bladder pressure ([1]; intramuscular, subcutaneous and sublingual injections, DTI-100 10-100 μg/kg, NKA 5-100 μg/kg): showed an increase in bladder pressure
5 | Spantide I | did not reduce the effect of DTI-100 on bladder pressure; also recorded: the same before (Before) and after (After) administration | did not reduce the effect of DTI-100 on colorectal activity |  | 
